The numbers were not newly measured in US20170281701A1, “Formulation for the Nebulization of Oil Based Substances Suitable for Use with a Vibrating Mesh Nebulizer” (priority 2016, published 2017), which cites them from elsewhere.

For data set [1] the following is noted: compared with Δ8-THC.
Experiment in data set [2]: not given
This is another data set of the same source.

The conditions of data set [3]: smoked cannabis cigarette, of total available amount.
The mark [4] stands for this setting: oral dose of 20 mg in a chocolate cookie.

For the molecule `C=C(C)[C@@H]1CCC(C)=C[C@H]1c1c(O)cc(CCCCC)cc1O` [CBD, cannabidiol], in data set [1], the “permeability through the skin relative to Δ8-THC” value is listed as 10 fold.

As to `CCCCCc1cc(O)c2c(c1)OC(C)(C)c1ccc(C)cc1-2` [CBN, cannabinol], the “permeability through the skin relative to Δ8-THC” value in data set [1] is 10 fold.

As to `CCCCCc1cc(O)c2c(c1)OC(C)(C)[C@@H]1CCC(C)=C[C@@H]21` [dronabinol], the “administered dose entering the systemic circulation” value (orally administered, extensive first-pass metabolism) is 10-20%.

As for `CCCCCc1cc(O)c2c(c1)OC(C)(C)[C@@H]1CCC(C)=C[C@@H]21` [Δ^9-THC, Δ-9-tetrahydrocannabinol], the “absorption through the rectal route” value in data set [2] is “not absorbed”. Under setting [4], the “absorption (description)” value is “slow and unreliable”; the systemic availability is listed as 4-12%. Besides, the “maximum of THC content in a cannabis cigarette absorbed or delivered to the systemic circulation” value in data set [3] is reported as 25-27%.

Take `CCCCCc1cc(OC(=O)CCC(=O)O)c2c(c1)OC(C)(C)[C@@H]1CCC(C)=C[C@@H]21` [Δ^9-THC-hemisuccinate]: the “absorption through the rectal route” value in data set [2] is “is absorbed”.
